Key:
[1] = system: ds10 (DNA, duplex) AAGAATTCTT; assay: fluorescence titration, independent equivalent sites; details: Na+ (100 mM NaCl, 10 mM sodium phosphate); buffer not in material
ds6 (DNA, duplex) CGTACG = assay: as above; details: Na+ (100 mM NaCl, 10 mM sodium phosphate); buffer not in material

Row | Structure (SMILES) | K b [1] | K b (ds6 (DNA, duplex) CGTACG)
1 | COc1cc(/C=C/c2ccc(O)cc2)cc(OC)c1 | (1.6±0.9)×10^6 M^-1 | (1.2±0.5)×10^6 M^-1
2 | Oc1ccc(/C=C/c2cc(O)cc(O)c2)cc1 | (1.6±1.3)×10^6 M^-1 | (1.6±1.4)×10^6 M^-1

— PMC8251996 (2021)
